Test results from patent US20220340597A1, “HEXAHYDRO-1H-PYRAZINO[1,2-A]PYRAZINE COMPOUNDS FOR THE TREATMENT OF AUTOIMMUNE DISEASE” (Hoffmann-La Roche Inc., priority 2019, published 2022).

Experiments:
[1] = target: T1, human TLR7 (Homo sapiens, UniProt Q9NYK1); assay: HEK293-Blue-hTLR-7 cells assay; type: cell-based; conditions: HEK293-Blue-hTLR7 cells, R848 stimulation, 20 hrs, SEAP reporter; read-out: HEK/hTLR7 IC50
T1 construct: host or cells: HEK293 (HEK-Blue hTLR7)
T1 sequence (Q9NYK1 27-1049): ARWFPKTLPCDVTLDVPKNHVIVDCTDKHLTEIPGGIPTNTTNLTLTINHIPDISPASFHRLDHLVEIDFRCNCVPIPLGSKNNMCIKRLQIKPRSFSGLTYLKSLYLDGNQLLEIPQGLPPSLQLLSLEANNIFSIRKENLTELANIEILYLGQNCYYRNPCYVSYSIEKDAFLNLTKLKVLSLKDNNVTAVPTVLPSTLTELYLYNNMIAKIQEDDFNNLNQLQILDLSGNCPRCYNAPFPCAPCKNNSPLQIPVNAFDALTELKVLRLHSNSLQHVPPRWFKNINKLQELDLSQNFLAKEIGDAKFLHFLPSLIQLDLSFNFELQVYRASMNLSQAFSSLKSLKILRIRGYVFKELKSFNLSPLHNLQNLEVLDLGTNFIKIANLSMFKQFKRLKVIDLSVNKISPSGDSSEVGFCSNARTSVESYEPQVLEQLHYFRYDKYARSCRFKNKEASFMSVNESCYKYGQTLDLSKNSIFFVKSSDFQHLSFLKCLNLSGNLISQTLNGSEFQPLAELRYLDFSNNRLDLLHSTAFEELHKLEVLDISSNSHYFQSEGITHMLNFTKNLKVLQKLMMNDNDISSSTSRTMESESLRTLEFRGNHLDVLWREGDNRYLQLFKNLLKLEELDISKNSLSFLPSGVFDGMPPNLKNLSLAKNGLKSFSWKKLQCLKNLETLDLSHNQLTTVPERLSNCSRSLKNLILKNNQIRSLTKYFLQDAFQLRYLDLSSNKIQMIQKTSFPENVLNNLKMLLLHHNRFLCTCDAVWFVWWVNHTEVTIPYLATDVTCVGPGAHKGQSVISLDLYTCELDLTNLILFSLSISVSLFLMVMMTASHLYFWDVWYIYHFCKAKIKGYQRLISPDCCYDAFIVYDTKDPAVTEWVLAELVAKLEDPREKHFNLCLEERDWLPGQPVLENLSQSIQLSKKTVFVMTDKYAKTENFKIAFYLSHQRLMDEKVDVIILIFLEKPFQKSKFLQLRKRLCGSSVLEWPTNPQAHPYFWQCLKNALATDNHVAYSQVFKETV
Protocol: The following tests were carried out in order to determine the activity of the compounds of formula (I) and (Ia) in HEK293-Blue-hTLR-7/8/9 cells assay.
HEK293-Blue-hTLR-7 cells assay:
A stable HEK293-Blue-hTLR-7 cell line was purchased from InvivoGen (Cat. #: hkb-htlr7, San Diego, Calif., USA). These cells were originally designed for studying the stimulation of human TLR7 by monitoring the activation of NF-κB. A SEAP (secreted embryonic alkaline phosphatase) reporter gene was placed under the control of the […] minimal promoter fused to five NF-κB and AP-1-binding sites. The SEAP was induced by activating NF-κB and AP-1 via stimulating HEK-Blue hTLR7 cells with TLR7 ligands. Therefore, the reporter expression was declined by TLR7 antagonist under the stimulation of a ligand, such as R848 (Resiquimod), for incubation of 20 hrs. The cell culture supernatant SEAP reporter activity was determined using QUANTI-Blue™ kit (Cat. #: rep-qb1, Invivogen, San Diego, Calif., USA) at a wavelength of 640 nm, a detection medium that turns purple or blue in the presence of alkaline phosphatase.
Then 20 μL of the supernatant from each well was incubated with […] Quanti-blue substrate solution at 37° C. for 2 hrs and the absorbance was read at 620-655 nm using a spectrophotometer. The signaling pathway that TLR7 activation leads to downstream NF-κB activation has been widely accepted, and therefore similar reporter assay was modified for evaluating TLR7 antagonist.

[2] = target: T2, human TLR8 (Homo sapiens, UniProt Q9NR97); assay: HEK293-Blue-hTLR-8 cells assay
T2 sequence (Q9NR97 27-1041): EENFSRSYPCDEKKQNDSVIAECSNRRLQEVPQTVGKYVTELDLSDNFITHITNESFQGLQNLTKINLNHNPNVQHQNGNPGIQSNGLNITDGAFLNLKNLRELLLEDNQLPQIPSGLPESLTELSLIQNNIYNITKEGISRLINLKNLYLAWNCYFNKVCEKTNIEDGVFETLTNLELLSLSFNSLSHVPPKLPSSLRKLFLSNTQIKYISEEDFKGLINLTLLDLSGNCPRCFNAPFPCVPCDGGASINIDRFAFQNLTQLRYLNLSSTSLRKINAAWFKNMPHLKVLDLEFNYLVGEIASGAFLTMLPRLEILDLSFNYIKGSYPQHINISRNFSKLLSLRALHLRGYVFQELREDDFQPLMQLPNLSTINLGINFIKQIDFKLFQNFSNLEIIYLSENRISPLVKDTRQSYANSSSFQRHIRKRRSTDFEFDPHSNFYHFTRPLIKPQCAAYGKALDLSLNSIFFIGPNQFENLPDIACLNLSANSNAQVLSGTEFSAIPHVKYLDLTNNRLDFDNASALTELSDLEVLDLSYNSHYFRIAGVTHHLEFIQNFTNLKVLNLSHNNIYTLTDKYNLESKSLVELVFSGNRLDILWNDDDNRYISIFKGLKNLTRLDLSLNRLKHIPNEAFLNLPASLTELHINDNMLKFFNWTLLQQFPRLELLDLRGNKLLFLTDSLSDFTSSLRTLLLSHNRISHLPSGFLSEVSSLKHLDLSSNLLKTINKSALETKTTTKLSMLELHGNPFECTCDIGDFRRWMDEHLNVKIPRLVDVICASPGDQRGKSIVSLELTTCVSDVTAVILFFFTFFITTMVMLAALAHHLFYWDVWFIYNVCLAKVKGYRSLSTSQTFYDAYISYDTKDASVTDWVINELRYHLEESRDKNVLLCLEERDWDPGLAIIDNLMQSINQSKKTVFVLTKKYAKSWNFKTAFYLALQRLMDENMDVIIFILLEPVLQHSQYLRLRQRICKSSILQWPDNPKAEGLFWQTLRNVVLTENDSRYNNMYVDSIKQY

SMILES | IC50 [1] [nM] | IC50 [2] [nM]
[2H]c1ccc2c(N3C[C@@H]4CN(c5ccc(N6CC7CCC(C6)N7)nc5)CCN4[C@@H](C)C3)ccc(C#N)c2n1 [Example 112, 5-[(4S,9aR)-8-[6-(3,8-diazabicyclo[3.2.1]octan-3-yl)-3-pyridyl]-4-methyl-3,4,6,7,9,9a-hexahydro-1H-pyrazino[1,2-a]pyrazin-2-yl]-2-deuterio-quinoline-8-carbonitrile] | 4 | 10
[2H]c1ccc2c(N3C[C@@H]4CN(c5ccc([C@@H]6CNCCO6)cc5)CCN4[C@@H](C)C3)ccc(C#N)c2n1 [Example 106, 5-[(4S,9aS)-4-methyl-8-[4-[(2R)-morpholin-2-yl]phenyl]-3,4,6,7,9,9a-hexahydro-1H-pyrazino[1,2-a]pyrazin-2-yl]-2-deuterio-quinoline-8-carbonitrile] | 2 | 4
C[C@@H]1CN(c2ccc(C#N)c3ncccc23)C[C@@H]2CN(CCc3ccc(N4C[C@@H](N)[C@@H](F)C4)cn3)CCN21 [Example 19, 5-[(4R,9aS)-8-[2-[5-[(3R,4S)-3-amino-4-fluoro-pyrrolidin-1-yl]-2-pyridyl]ethyl]-4-methyl-3,4,6,7,9,9a-hexahydro-1H-pyrazino[1,2-a]pyrazin-2-yl]quinoline-8-carbonitrile] | 10 | 31
C[C@@H]1CN(c2ccc(C#N)c3ncccc23)C[C@@H]2CN(CCc3cccc(N4CCN[C@@H](C)C4)n3)CCN21 [Example 21, 5-[(4R,9aS)-4-methyl-8-[2-[6-[(3S)-3-methylpiperazin-1-yl]-2-pyridyl]ethyl]-3,4,6,7,9,9a-hexahydro-1H-pyrazino[1,2-a]pyrazin-2-yl]quinoline-8-carbonitrile] | 19 | 53
CO[C@@H]1CN(c2nc(C)cc(N3CCN4[C@@H](C3)CN(c3ccc(C#N)c5ncccc35)C[C@H]4C)n2)C[C@H]1N [Example 45, 5-[(4R,9aR)-8-[2-[(3R,4R)-3-amino-4-methoxy-pyrrolidin-1-yl]-6-methyl-pyrimidin-4-yl]-4-methyl-3,4,6,7,9,9a-hexahydro-1H-pyrazino[1,2-a]pyrazin-2-yl]quinoline-8-carbonitrile] | 18 | 28
C[C@@H]1CN(c2ccc(C#N)c3ncccc23)C[C@@H]2CN(CCc3ccc(N4CC5(CNCCO5)C4)cc3)CCN21 [Example 28, 5-[(4R,9aS)-4-methyl-8-[2-[4-(5-oxa-2,8-diazaspiro[3.5]nonan-2-yl)phenyl]ethyl]-3,4,6,7,9,9a-hexahydro-1H-pyrazino[1,2-a]pyrazin-2-yl]quinoline-8-carbonitrile] | 12 | 29
[2H]c1ccc2c(N3C[C@@H]4CN(Cc5ccc6c(c5)CNCC6)CCN4[C@H](C)C3)ccc(C#N)c2n1 [Example 61, 5-[(4R,9aS)-4-methyl-8-(1,2,3,4-tetrahydroisoquinolin-7-ylmethyl)-3,4,6,7,9,9a-hexahydro-1H-pyrazino[1,2-a]pyrazin-2-yl]-2-deuterio-quinoline-8-carbonitrile] | 16 | 8
C[C@@H]1CN(c2ccc(C#N)c3ncccc23)C[C@@H]2CN(c3nccc4c3CCNC4)CCN21 [Example 16, 5-[(4R,9aR)-4-methyl-8-(5,6,7,8-tetrahydro-2,6-naphthyridin-1-yl)-3,4,6,7,9,9a-hexahydro-1H-pyrazino[1,2-a]pyrazin-2-yl]quinoline-8-carbonitrile] | 6 | 9
C[C@@H]1CN(c2ccc(C#N)c3ncccc23)C[C@@H]2CN(Cc3ccc4c(c3)CCNC4)CCN21 [Example 10, 5-[(4R,9aS)-4-methyl-8-(1,2,3,4-tetrahydroisoquinolin-6-ylmethyl)-3,4,6,7,9,9a-hexahydro-1H-pyrazino[1,2-a]pyrazin-2-yl]quinoline-8-carbonitrile] | 26 | 12
CO[C@@H]1CN(c2ccc(CCN3CCN4[C@@H](C3)CN(c3ccc(C#N)c5ncccc35)C[C@H]4C)cc2)C[C@H]1N [Example 26, 5-[(4R,9aS)-8-[2-[4-[(3R,4R)-3-amino-4-methoxy-pyrrolidin-1-yl]phenyl]ethyl]-4-methyl-3,4,6,7,9,9a-hexahydro-1H-pyrazino[1,2-a]pyrazin-2-yl]quinoline-8-carbonitrile] | 18 | 8
[2H]c1ccc2c(N3C[C@@H]4CN(c5ccc(N6C[C@@H](N)[C@H](OC)C6)nc5)CCN4[C@@H](C)C3)ccc(C#N)c2n1 [Example 115, 5-[(4S,9aR)-8-[6-[(3R,4R)-3-amino-4-methoxy-pyrrolidin-1-yl]-3-pyridyl]-4-methyl-3,4,6,7,9,9a-hexahydro-1H-pyrazino[1,2-a]pyrazin-2-yl]-2-deuterio-quinoline-8-carbonitrile] | 10 | 17
C[C@@H]1CN(c2ccc(C#N)c3ncccc23)C[C@@H]2CN(CCc3ccc(N4CC5(CNCCO5)C4)nc3)CCN21 [Example 59, 5-[(4R,9aS)-4-methyl-8-[2-[6-(5-oxa-2,8-diazaspiro[3.5]nonan-2-yl)-3-pyridyl]ethyl]-3,4,6,7,9,9a-hexahydro-1H-pyrazino[1,2-a]pyrazin-2-yl]quinoline-8-carbonitrile] | 9 | 28
N#Cc1ccc(N2CCN3CCN(c4cccc5c4CNC5)CC3C2)c2cccnc12 (stereo not shown) [Example 35, 5-(8-isoindolin-4-yl-3,4,6,7,9,9a-hexahydro-1H-pyrazino[1,2-a]pyrazin-2-yl)quinoline-8-carbonitrile] | 29 | 8
[2H]c1ccc2c(N3C[C@@H]4CN(c5ncc(N6C[C@H]7NCCO[C@@H]7C6)cc5C)CCN4[C@@H](C)C3)ccc(C#N)c2n1 [Example 114, 5-[(4S,9aR)-8-[5-[(4aR,7aR)-3,4,4a,5,7,7a-hexahydro-2H-pyrrolo[3,4-b][1,4]oxazin-6-yl]-3-methyl-2-pyridyl]-4-methyl-3,4,6,7,9,9a-hexahydro-1H-pyrazino[1,2-a]pyrazin-2-yl]-2-deuterio-quinoline-8-carbonitrile] | 2 | 10
